Laboratory results taken from article PMC6321621, “Design of a Novel and Selective IRAK4 Inhibitor Using Topological Water Network Analysis and Molecular Modeling Approaches” (Molecules, 2018).

Experiments:
Assay type in all cases: biochemical
[1] = target: T1, IRAK4 (h) (Homo sapiens, UniProt Q9NWZ3); experiment: Enzymatic assay for IRAK4 (radiometric, Eurofins); settings: for IC50: in vitro enzymatic assay, duplicate, average, read-out: IC50 against IRAK4
T1 construct: purchased Eurofins Scientific Inc. Korea (contract assay service)
T1 sequence (Q9NWZ3 1-460): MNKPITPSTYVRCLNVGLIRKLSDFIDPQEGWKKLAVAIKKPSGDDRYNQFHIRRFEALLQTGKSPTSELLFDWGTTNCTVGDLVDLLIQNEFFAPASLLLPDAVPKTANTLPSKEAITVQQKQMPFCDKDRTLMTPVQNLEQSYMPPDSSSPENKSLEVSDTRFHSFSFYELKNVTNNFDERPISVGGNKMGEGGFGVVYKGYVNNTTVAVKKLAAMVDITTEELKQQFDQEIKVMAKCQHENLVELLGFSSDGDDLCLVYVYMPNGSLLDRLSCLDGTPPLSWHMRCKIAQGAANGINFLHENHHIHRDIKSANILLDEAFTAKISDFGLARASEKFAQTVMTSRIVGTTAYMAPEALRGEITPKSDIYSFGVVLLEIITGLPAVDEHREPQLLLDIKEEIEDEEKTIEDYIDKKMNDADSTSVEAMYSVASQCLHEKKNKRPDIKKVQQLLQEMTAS
Method: (§1) Enzymatic assays for IRAK4, ASK1, ITK, and LYN were performed by Eurofins Scientific Inc. Korea (Brussels, Belgium). All assays were performed in duplicate, and the average IC50 value was reported.
(§2) IRAK4 (h) was incubated with 8 mM MOPS pH 7.0, 0.2 mM EDTA, 0.33 mg/mL myelin basic protein, 10 mM Mg acetate and [γ-^33P]-ATP (specific activity approx. 500 cpm/pmol, concentration as required). The reaction was initiated by the addition of a MgATP mix. After incubation for 40 min at room temperature, the reaction was stopped by the addition of 3% phosphoric acid solution. A total of 10 μL of the reaction was then spotted onto a P30 filtermat and washed three times for 5 min in 75 mM phosphoric acid, and once in methanol prior to drying and scintillation counting.

[2] = target: T2, LYN (h) (Homo sapiens, UniProt P07948); experiment: Enzymatic assay for LYN (radiometric, Eurofins); settings: in vitro enzymatic assay, duplicate, average; read-out: IC50 against LYN
T2 construct: purchased Eurofins Scientific Inc. Korea (contract assay service)
T2 sequence (P07948 whole entry): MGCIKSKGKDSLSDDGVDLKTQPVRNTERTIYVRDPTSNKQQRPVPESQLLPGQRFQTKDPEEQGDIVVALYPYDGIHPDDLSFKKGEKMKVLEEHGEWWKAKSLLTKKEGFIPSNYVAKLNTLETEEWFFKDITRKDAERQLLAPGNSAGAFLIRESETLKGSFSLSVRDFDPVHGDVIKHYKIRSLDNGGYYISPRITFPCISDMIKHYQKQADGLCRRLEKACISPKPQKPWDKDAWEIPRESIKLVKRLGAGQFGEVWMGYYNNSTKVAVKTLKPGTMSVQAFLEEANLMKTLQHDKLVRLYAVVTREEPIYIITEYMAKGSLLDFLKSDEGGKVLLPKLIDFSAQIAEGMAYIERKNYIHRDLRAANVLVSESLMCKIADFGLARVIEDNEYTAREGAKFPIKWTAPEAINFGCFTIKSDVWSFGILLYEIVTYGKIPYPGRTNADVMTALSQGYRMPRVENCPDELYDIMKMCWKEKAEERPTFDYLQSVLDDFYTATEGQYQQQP
Method: Enzymatic assays for IRAK4, ASK1, ITK, and LYN were performed by Eurofins Scientific Inc. Korea (Brussels, Belgium). All assays were performed in duplicate, and the average IC50 value was reported. LYN (h) was incubated with 50 mM Tris pH 7.5, 0.1 mM EGTA, 0.1 mM Na3VO4, 0.1% […], 0.1 mg/mL poly(Glu, Tyr) 4:1, 10 mM Mg acetate, and [γ-^33P]-ATP (specific activity approx. 500 cpm/pmol, concentration as required). The reaction was initiated by the addition of the MgATP mix. After incubation for 40 min at room temperature, the reaction was stopped by the addition of 3% phosphoric acid solution. A total of 10 μL of the reaction was then spotted onto a Filtermat A and washed three times for 5 min in 75 mM phosphoric acid, and once in methanol prior to drying and scintillation counting.

[3] = target: T3, ITK (h) (Homo sapiens, UniProt Q08881); experiment: Enzymatic assay for ITK (radiometric, Eurofins); settings: in vitro enzymatic assay, duplicate, average; read-out: IC50 against ITK
T3 construct: purchased Eurofins Scientific Inc. Korea (contract assay service)
T3 sequence (Q08881 1-620): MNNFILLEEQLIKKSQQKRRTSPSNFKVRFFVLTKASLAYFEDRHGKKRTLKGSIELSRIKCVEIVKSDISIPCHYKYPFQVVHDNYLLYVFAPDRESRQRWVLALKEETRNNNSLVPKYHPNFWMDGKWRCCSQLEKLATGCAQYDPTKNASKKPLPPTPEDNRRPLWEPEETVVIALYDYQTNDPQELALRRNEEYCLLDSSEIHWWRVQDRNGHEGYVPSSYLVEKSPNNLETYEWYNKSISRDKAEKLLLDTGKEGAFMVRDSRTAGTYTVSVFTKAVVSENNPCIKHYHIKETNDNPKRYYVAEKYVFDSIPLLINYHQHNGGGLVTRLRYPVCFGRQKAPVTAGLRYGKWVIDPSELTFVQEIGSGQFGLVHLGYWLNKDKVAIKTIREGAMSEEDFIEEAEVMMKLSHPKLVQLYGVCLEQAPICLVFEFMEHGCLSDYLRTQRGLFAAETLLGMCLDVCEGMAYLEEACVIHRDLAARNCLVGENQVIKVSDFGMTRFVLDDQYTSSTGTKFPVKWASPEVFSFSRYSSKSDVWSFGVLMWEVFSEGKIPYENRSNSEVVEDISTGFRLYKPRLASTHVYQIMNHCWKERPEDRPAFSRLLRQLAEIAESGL
Method: Enzymatic assays for IRAK4, ASK1, ITK, and LYN were performed by Eurofins Scientific Inc. Korea (Brussels, Belgium). All assays were performed in duplicate, and the average IC50 value was reported. ITK (h) was incubated with 8 mM MOPS pH 7.0, 0.2 mM EDTA, 0.33 mg/mL myelin basic protein, 10 mM Mg acetate, and [γ-^33P]-ATP (specific activity approx. 500 cpm/pmol, concentration as required). The reaction was initiated by the addition of the MgATP mix. After incubation for 40 min at room temperature, the reaction was stopped by the addition of 3% phosphoric acid solution. A total of 10 μL of the reaction was then spotted onto a P30 filtermat and washed three times for 5 min in 75 mM phosphoric acid, and once in methanol prior to drying and scintillation counting.

[4] = target: T4, ASK1 (h) (Homo sapiens, UniProt Q99683); experiment: Enzymatic assay for ASK1 (radiometric, Eurofins); settings: in vitro enzymatic assay, duplicate, average; read-out: IC50 against ASK1
T4 construct: purchased Eurofins Scientific Inc. Korea (contract assay service)
T4 sequence (Q99683 1-1374): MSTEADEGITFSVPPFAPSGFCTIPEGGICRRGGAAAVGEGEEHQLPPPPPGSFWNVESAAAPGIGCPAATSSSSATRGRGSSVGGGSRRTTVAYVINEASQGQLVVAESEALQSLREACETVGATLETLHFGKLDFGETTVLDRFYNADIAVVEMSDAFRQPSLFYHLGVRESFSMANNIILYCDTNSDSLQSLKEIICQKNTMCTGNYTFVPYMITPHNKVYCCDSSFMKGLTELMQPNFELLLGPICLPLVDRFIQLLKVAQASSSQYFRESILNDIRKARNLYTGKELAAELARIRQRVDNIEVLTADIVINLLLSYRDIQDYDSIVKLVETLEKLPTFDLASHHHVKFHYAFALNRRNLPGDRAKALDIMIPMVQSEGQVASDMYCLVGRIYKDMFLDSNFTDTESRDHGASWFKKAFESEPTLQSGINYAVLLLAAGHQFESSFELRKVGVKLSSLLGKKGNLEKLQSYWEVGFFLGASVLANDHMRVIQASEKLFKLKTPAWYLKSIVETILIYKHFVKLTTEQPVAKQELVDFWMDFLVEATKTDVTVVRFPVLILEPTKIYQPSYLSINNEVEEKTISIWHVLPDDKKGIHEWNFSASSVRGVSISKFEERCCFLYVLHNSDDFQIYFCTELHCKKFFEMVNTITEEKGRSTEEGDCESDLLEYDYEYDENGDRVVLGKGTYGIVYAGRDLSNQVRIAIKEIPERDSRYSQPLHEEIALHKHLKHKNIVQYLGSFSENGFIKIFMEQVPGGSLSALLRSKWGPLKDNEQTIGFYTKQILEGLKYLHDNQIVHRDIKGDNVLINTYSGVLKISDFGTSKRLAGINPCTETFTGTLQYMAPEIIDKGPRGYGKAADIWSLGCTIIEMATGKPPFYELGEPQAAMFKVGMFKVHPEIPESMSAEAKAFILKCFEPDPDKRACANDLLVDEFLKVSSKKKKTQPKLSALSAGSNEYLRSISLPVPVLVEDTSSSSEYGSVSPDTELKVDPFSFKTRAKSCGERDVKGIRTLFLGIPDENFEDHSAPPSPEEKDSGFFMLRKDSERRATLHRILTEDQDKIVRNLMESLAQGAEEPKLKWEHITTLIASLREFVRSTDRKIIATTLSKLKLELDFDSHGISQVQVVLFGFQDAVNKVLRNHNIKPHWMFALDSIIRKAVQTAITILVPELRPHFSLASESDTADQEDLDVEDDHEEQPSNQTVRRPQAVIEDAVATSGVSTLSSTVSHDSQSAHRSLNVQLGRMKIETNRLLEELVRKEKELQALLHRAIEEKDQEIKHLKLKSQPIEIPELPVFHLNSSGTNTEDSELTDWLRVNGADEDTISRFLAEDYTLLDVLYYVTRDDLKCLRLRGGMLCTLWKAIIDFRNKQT
Method: as §1
as §2, with “ASK1 (h)” for “IRAK4 (h)”, “of the” for “of a”

In the case of “4-(5-Benzylamino-imidazo[4,5-b]pyridine-1-yl)-benzonitrile [Compound 3]”, the “inhibition of IRAK4” value ([1]; at 10 μM) is reported as 97% and the IC50 [1] is reported as 158 nM.
For `CC(C)(C)c1ccc(C(=O)Nc2cn3cc(-n4ccnc4)ccc3n2)cc1` [Compound 1], the IC50 [2] was 2390 nM, the IC50 [3] was 1670 nM and the IC50 [4] was 53 nM. The IC50 [1] was 187 nM.
In the case of `COCc1nc2ccc(NC(=O)c3ccc(Br)o3)cc2[nH]1` [Compound 2], the IC50 [1] is reported as 6650 nM.
